Laboratory results from US10934346B2, “Modified T cell comprising a polynucleotide encoding an inducible stimulating molecule comprising MyD88, CD40 and FKBP12” (priority 2014, dated 2021).

Experiments:
[1] = tested on: cells; test: Amount of AP1903 needed in vitro for effective signaling of cells; type: cell-based
Description: The fixed dose of AP1903 for injection used, for example, may be 0.4 mg/kg intravenously infused over 2 hours. The amount of AP1903 needed in vitro for effective signaling of cells is about 10-100 nM (MW: 1412 Da). This equates to 14-140 μg/L or ˜0.014-0.14 mg/kg ([…]). The dosage may vary according to the application, and may, in certain examples, be more in the range of 0.1-10 nM, or in the range of 50-150 nM, 10-200 nM, 75-125 nM, 100-500 nM, 100-600 nM, 100-700 nM, 100-800 nM, or 100-900 nM. Doses up to 1 mg/kg were well-tolerated in the Phase I study of AP1903 described above.

[2] = tested on: B16-F10 melanoma cells; test: IL-6 ELISA of adenovirus-transduced B16-F10 melanoma cells with AP1903; type: cell-based
Description: Adenoviruses were added at 1000, 2000, 4000, 8000 and 16000 virus/cell ratio and cells were incubated for 24 hours. Then, 100 nM of AP1903 was added to all the wells, and the following day the cells and culture supernatants were harvested. A. Cells were labeled with anti-human PSMA antibody, LNI-17, (Biolegend, San Diego, Calif.) and PSMA expression was analyzed by flow cytometry. Represented is the percentage of PSMA^+ cells when compared to non-transduced cells. B. IL-6 was evaluated from the culture supernatants by ELISA (e-Bioscience, San Diego, Calif.). FIG. 28 provides the results of the assay at a different multiplicity of infection and plating concentration. B16 melanomas were cultured at 50,000 cells/ml/well in 24-well plates. Adenoviruses were added at 6000, 12000, 18000, 24000 and 30000 virus/cell ratio and cells were incubated for 24 hours. Then, 100 nM of AP1903 was added to all the wells, and the following day the cells and culture supernatants were harvested. A. Cells were labeled with anti-human PSMA antibody, LNI-17, (Biolegend, San Diego, Calif.) and PSMA expression was analyzed by flow cytometry. Represented is the percentage of PSMA^+ cells when compared to non-transduced cells. B. IL-6 was evaluated from the culture supernatants by ELISA (e-Bioscience, San Diego, Calif.). […] IL-6 was evaluated from the culture supernatants by ELISA (e-Bioscience, San Diego, Calif.)

[3] = tested on: BLK CL4 fibroblasts; test: IL-6 ELISA of adenovirus-transduced BLK CL4 fibroblasts with AP1903; type: cell-based; details: 100 nM AP1903
Description: BLK.CL4 fibroblasts were cultured at 175,000 cells/ml/well in 24-well plates. Adenoviruses were added at 6000, 12000, 18000, 24000 and 30000 virus/cell ratio and cells were incubated for 24 hours. Then, 100 nM of AP1903 was added to all the wells, and the following day cells and culture supernatants were harvested. A. Cells were labeled with anti-human PSMA antibody, LNI-17, (Biolegend, San Diego, Calif.) and PSMA expression was analyzed by flow cytometry. Represented is the percentage of PSMA^+ cells when compared to non-transduced cells. B. IL-6 was evaluated from the culture supernatants by ELISA (e-Bioscience, San Diego, Calif.). For FIG. 31, BLK.CL4 fibroblasts were cultured at 350,000 cells/well in 6-well plates. Adenoviruses were added at 20,000 v.p./cell ratio and cells were incubated for 24 hours. Then, 100 nM of AP1903 was added, and the following day culture supernatants were harvested. IL-6 was evaluated from the culture supernatants by ELISA (e-Bioscience, San Diego, Calif.).

[4] = tested on: T cells transduced with RV-172 (iMC); test: AP1903-induced T cell activation, 27-plex cytokine/chemokine bead array; type: cell-based, human; details: 10 nM AP1903, 24 hours, RV-172 T cells
Description: 5. To assess AP1903-dependent T cell activation of T cells, 1×10^5 non-transduced (NT) or T cells transduced with the control retrovirus (RV-171) or the retrovirus containing iMC (RV-172) were plated in triplicate in 96-well plates and cultured at 37° C. 5% CO2 with media alone, or media containing 10 nM AP1903. 6. After 24 hours, the cells were gently mixed and the plate was centrifuged. Supernatant was then collected and plated into a BIOPLEX Human Cytokine/Chemokine 27-plex plate, which measures the following cytokines and chemokines: • a. Basic-FGF, G-CSF, GM-CSF, IFN-gamma, IL-1Ra, IL-1beta, IL-2, IL-4, IL-5, IL-6, […], IL-7, […], IL-9, IL-10, IL-12p70, IL-13, IL-15, IL-17RA, eotaxin, IP10, MCP-1, MIP-1alpha, MIP-1beta, PDGF-bb, RANTES, TNF-alpha and VEGF. • b. The cytokines and chemokines in the supernatants were subsequently measured and compared to standards in the plate using a BIOPLEX MAGPIX Multiplex Reader.
T cells were stimulated with 10 nM AP1903 for 24 hours then supernatants were assayed for cytokine levels.

## CC[C@H](C(=O)N1CCCC[C@H]1C(=O)O[C@H](CCc1ccc(OC)c(OC)c1)c1cccc(OCC(=O)NCCNC(=O)COc2cccc([C@@H](CCc3ccc(OC)c(OC)c3)OC(=O)[C@@H]3CCCCN3C(=O)[C@@H](CC)c3cc(OC)c(OC)c(OC)c3)c2)c1)c1cc(OC)c(OC)c(OC)c1 (relative stereo) [rimiducid, 2-Piperidinecarboxylic acid, 1-[(2S)-1-oxo-2-(3,4,5-trimethoxyphenyl)butyl]-, 1,2-ethanediylbis [imino(2-oxo-2,1-ethanediyl)oxy-3,1-phenylene[(1R)-3-(3,4-Dimethoxyphenyl)propylidene]] ester, [2S-[1(R*),2R*[S*[S*[1(R*),2R*]]]]]-(9Cl)]
[1]
  amount needed in vitro for effective signaling of cells: 10 to 100 nM
[1]; MW: 1412 Da
  amount needed for effective signaling, converted: 14 to 140 µg/L
[2]; 100 nM AP1903
  IL-6 production: response to AP1903 by producing IL-6
[2]; presence and absence of AP1903
  IL-6 production without ligand: transduced cells produce IL-6 without the addition of AP1903
[3]
  IL-6 production: response to AP1903 by producing IL-6
[4]
  cytokines and chemokines induced: GM-CSF, IFN-gamma, IL-13, IL-4, IL-5, IL-6, IL-8, IL-1beta, IL-12p70, IP10, MIP-1alpha, MIP-1beta, RANTES, and TNF-alpha
  cytokines and chemokines not induced: Basic-FGF, G-CSF, IL-1Ra, IL-2, IL-7, IL-9, IL-10, IL-15, IL-17RA, eotaxin, MCP-1, PDGF-bb and VEGF
